Assays:
[1] = molecular target: T1, SMNDC1 Tudor domain (Homo sapiens, UniProt O75940); test: AlphaScreen, SMNDC1 Tudor domain / sDMA-peptide interaction
T1 sequence (O75940 65-128): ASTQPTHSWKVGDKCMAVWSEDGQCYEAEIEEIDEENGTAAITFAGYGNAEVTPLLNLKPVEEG
Excerpt: To pharmacologically perturb SMNDC1 function, we set out to identify small molecule inhibitors of SMNDC1’s Tudor domain based on perturbing its interaction with a dimethylarginine peptide. To establish an AlphaScreen[50], we coupled donor beads to purified SMNDC1’s (or SMN’s) Tudor domain via a His-Tag and acceptor beads to a biotinylated peptide corresponding to the C-terminal region of the Small nuclear ribonucleoprotein Sm D3 containing four sDMAs (Fig. 4a). […] To identify ideal concentrations for screening, we performed a cross-titration of Tudor domains and binding peptides (Supplementary Fig. 3b).
The AlphaScreen was conducted in 20 mM sodium phosphate pH 6.5, 50 mM NaCl, Tween 0.01%, BSA 0.1%. Protein concentration was optimized for each batch of purified protein. Optimal concentration was chosen at the lowest concentration with ~80% of maximum signal. […] In the first step, 10 µl of the protein solution containing either SMNDC1’s or SMN’s Tudor domain coupled to a 6xHis-Tag were distributed to 384-well plates pre-spotted with compounds and controls, shaken and incubated for 30 min at RT. Afterwards, 10 µl of peptide solution was added to each well and incubated for 1 h at RT. Finally, 5 µl of a solution containing both Streptavidin Donor and nickel chelate (Ni-NTA) Acceptor beads was added and again incubated for 1 h at RT.
Category Parameter Description
Assay Type of assay In vitro AlphaScreen / luminescence proximity
Target Tudor domain of SMNDC1
Primary measurement Decrease in luminescence signal reflecting
disruption of heterodimeric complex between
SMNDC1-Tudor domain and a peptide
corresponding to the C-terminus of Small nuclear
ribonucleoprotein Sm D3 containing 4 sDMAs
Key reagents AlphaScreen no-wash assay kit containing
Streptavidin Donor beads and nickel chelate (Ni-
NTA) AlphaScreen Acceptor beads (PerkinElmer
Assay protocol Described in Methods section
Screen Format PerkinElmer OptiPlate-384 well plate
Concentration(s) tested Typically 10 μM (0.1% DMSO)
Plate controls 32 positive control wells (Mitoxantrone, quencher),
32 negative control wells (DMSO)
Reagent/ compound dispensing system Echo 520 Liquid Handler Multidrop™ Combi
Normalization Raw signal was normalized plate-specifically by
correcting row and column-specific mean signals to
the mean signal of the entire plate, each after
removing the highest and lowest 25% of values. Raw
signal was then converted to percent of control
signal, but linear regression to plate-specific mean
signal of DMSO wells (set to 100 percent of control)
and positive control wells (set to 0% of control), after
outlier removal using a Grubbs test.
unspecific quenchers), Secondary screen (with

[2] = molecular target: T2, APEX2-SMNDC1^FL (Homo sapiens, UniProt O75940); test: APEX2-SMNDC1^FL proximity labeling, biotin enrichment and mass spectrometry; assay type: cell-based, mouse; details: compound-treated over DMSO; adjusted p-value<0.05, |log2FC|≥2
T2 construct: In addition to full-length SMNDC1 (APEX2-SMNDC1^FL); expressed in transfected cells
T2 sequence (O75940 1-238): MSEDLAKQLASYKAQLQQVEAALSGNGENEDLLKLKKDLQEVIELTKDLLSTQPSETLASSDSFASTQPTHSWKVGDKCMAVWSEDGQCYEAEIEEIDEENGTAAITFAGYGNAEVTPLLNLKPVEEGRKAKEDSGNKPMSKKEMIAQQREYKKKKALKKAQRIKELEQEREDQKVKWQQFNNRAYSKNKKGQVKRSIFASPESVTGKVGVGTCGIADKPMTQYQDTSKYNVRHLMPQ
Excerpt: Proximity labeling with APEX2 was done following the described protocol for imaging and proteomic analysis. Cell lines with a stable expression of APEX2-fusion proteins were generated using lentiviral transduction of plasmids generated with Gateway cloning of the respective fusion protein into pLEX305. pLEX_305 was a gift from David Root (Addgene plasmid # 41390; http://n2t.net/addgene:41390; RRID:Addgene_41390). The APEX2 sequence was amplified from APEX2-csGBP which was a gift from Rob Parton (Addgene plasmid # 108874; http://n2t.net/addgene:108874; RRID:Addgene_108874). Briefly, cells were incubated with 0.5 mM biotin-phenol for 30 min, after which 1 mM H2O2 was added for exactly 1 min. Afterwards the labeling reaction was quenched by 3 quick washes with Quenching solution (10 mM sodium ascorbate, 10 mM sodium azide, 5 mM Trolox in PBS). […]
After proximity labeling, cells (~10 Mio. cells, 15 cm dish) were harvested, washed 2x in PBS, snap frozen and stored at −80 °C. […] After quantification of protein amounts by Pierce™ 660 nm Protein Assay, samples were normalized to 500 µg total protein input in a final volume of 300 µl lysis buffer. […]
Following data acquisition, acquired raw data files were processed using the Proteome Discoverer v.2.4.1.15 platform, choosing a TMT16plex quantification method. […]

[3] = test system: SMNDC1-GFP intron 2-3, SRRM2-RFP intron 9-10, αTC1-clone; test: Fluorescence recovery after photobleaching (FRAP); assay type: cell-based, mouse; details: 50 µM, 15-45 min
Experimental: For FRAP experiments, cells harboring intron-tags in SMNDC1 and SRRM2 were seeded 24 h before imaging on a Zeiss LSM 980 microscope. 15 min before imaging, medium was changed to medium without phenol red containing DRAQ5^TM 1:1000 to reduce autofluorescence and to mark nuclei. If cells were treated with compounds, these were added in the same step. After identifying a suitable cell, bleach and reference regions were defined. After taking one reference image, the bleach region was bleached 15 times for 5 milliseconds with 100% laser power at 488 nm for GFP and with 20% laser power at 546 nm for RFP. After bleaching, a new image was taken approximately every 3 s until 150 s after bleaching. Fluorescence intensities were quantified in the bleach and reference regions for every image and normalized to the intensity before bleaching.

## CN(C)S(=O)(=O)c1ccc(C(=O)Nc2nc(-c3ccccn3)cs2)cc1 [compound 1]
[1]
  IC50: 0.5 µM
[2]
  proteins significantly depleted: 126 proteins
  proteins significantly enriched: 6 proteins
[3]
  recovery after photobleaching of SMNDC1 and SRRM2: lower recovery after photobleaching

— article PMC10432564, “Pharmacological perturbation of the phase-separating protein SMNDC1” (Nature Communications, 2023)
